# In US11802110B2, “2-amino-N-(arylsulfinyl)-acetamide compounds as inhibitors of bacterial aminoacyl-tRNA synthetase” (priority 2016, dated 2023):
# Like-named read-outs stand apart in the source and are kept apart here.
# Columns and labels:
# [1] = test system: Escherichia coli ATCC 25922 TolC deficient mutant (E. coli EFFLUX del); assay: microbe, parasite or virus in culture; format: cell-based; conditions: Escherichia coli, ATCC25922
# Procedure: (§1) Minimum Inhibitory Concentrations (MICs) were determined by the broth micro-dilution method performed according to Clinical Laboratory Standards Institute guidelines. For testing, 5 mg/mL DMSO solutions were prepared by dissolving solids in DMSO. Standard antibiotics were prepared according to CLSI guidelines as 5 mg/mL stock solutions. Upon DMSO stock solutions preparation, the working solutions in MH media were prepared by adding 38.4 μL of stock solution to 1461.6 μL of MH media. Out of these working solutions 100 μL were transferred to wells in the third column of 96-well assay plates. Assay plates were previously filled with 50 μL of MH media in all wells except for the wells in the third column. Upon compounds and antibiotics addition, 50 μL was transferred from the third to the fourth column, then from the fourth to the fifth and so on.
# (§2) MIC value was determined by visual inspection of bacterial growth within 96-well plates. The first column in which there was no visible growth of bacteria was determined as MIC value for compound or antibiotic tested in that particular row. ATCC strains were used as reference strains for which there is a determined value of MIC values for standard antibiotics. The assay is considered valid when MIC values for standard antibiotics are within CLSI designated range for ATCC strain tested.
# [2] = Human cell viability (cytotoxicity), ATP levels by CellTiter-Glo; format: cell-based; conditions: HepG2 cells (ATCC HB-8065), 24 hours incubation, read-out: IC50 (μg/mL), Cytotoxicity in HepG2 ATCC HB-8065 Cell Line
# Procedure: Compounds were assessed for potential non-specific cytotoxic effects against a human hepatic cell line (HepG2 ATCC HB-8065). 96-well plates were seeded with HepG2 cells in concentration of 15,000 cells per well in 100 μL of MEM growth media completed with 1% NEAA and 1% sodium pyruvate. Border wells were filled with 100 μL of sterile PBS. Two days upon cells incubation, the compounds were added. Compound dilutions were prepared in 96-well V-bottom plate in pure DMSO. Growth media from 5 plates were aspirated and replaced with 98.7 μL of fresh growth media. 1.28 μL of compounds prepared in V-bottom plates were transferred with multichannel pipette into test plates (78.1× dilution). Final DMSO concentration was 1.28% per well. In control wells, 1.28 μL of DMSO was added in 98.7 μL of media. Compounds were tested in duplicates. Cells were incubated with compounds for 24 hours when cell viability was assessed by measuring ATP levels. ATP levels were measured by adding 50 μL of CellTiter-Glo reagent to each well and after 5 minutes of incubation luminescence was measured with SpectraMax i3. The potential effect of tested compounds on cell viability was determined by comparing the signal obtained in presence of different concentrations of the compounds with those obtained in the presence of DMSO only. The potential effects were then calculated and presented as IC50 values (μg/mL).
# E. Coli LeuRS = E. Coli LeuRS (Escherichia coli (strain K12), UniProt P07813); assay: Study 2 - Isothermal titration calorimetry (ITC); format: binding; conditions: 25° C., pH 7.5, mean ± SD
# Procedure: Escherichia coli BL21(DE3) cells transformed with plasmid pQE-60 containing the open-reading frame sequence of one targeted aaRS (i.e., LeuRS) were induced with 1 mM IPTG (isopropyl β-D-1-thiogalactopyranoside) for 3 hours at 37° C. Bacterial cells were harvested and lysed with 20 mM HEPES (4-(2-hydroxyethyl)-1-piperazinylethane-sulfonic acid) (pH 7.5), 300 mM NaCl, 15 mM imidazole and 1 mM DTT (1,4-dithio-D-threitol). The pathogenic aaRS was first purified by nickel affinity standard chromatography. The eluted protein was concentrated and then further purified by gel filtration using 50 mM HEPES (pH 7.5), 150 mM NaCl buffer.
# ITC studies were carried out using a Microcal ITC200 instrument (GE Healthcare). Protein concentration was determined by spectrophotometry by measuring the absorbance at 280 nm using a theoretical molar extinction coefficient of 169,140 M^−1cm^−1. Ligand stock solutions were prepared in DMSO at 62.5 mM concentration. The titrations were performed at 25° C. with 7.5-100 μM E. Coli LeuRS in 50 mM HEPES, 150 mM NaCl, pH 7.5 buffer containing 1% DMSO (v/v). The protein solution in the 280 μL sample cell was titrated with the inhibitor solution (diluted to 75-3000 μM in the same buffer as the protein) using 1-2 μL injections every 120-140 seconds. All titrations were repeated at least two times. To correct for heats of dilution and mixing, the final baseline consisting of small peaks of identical size at the end of each experiment was subtracted. The experimental data were fitted to a theoretical titration curve (one site model) using MicroCal Origin 7 SR4 software.
# Note that Compounds R-4.1 and S-4.1 (in Table 15, below) correspond to Compounds V-i and V-ii (in Tables 13 and 14, above), respectively.
# [3] = test system: Escherichia coli ATCC 25922; assay: Study 4 - MIC by broth micro-dilution (CLSI); format: cell-based; conditions: Escherichia coli, ATCC25922
# Procedure: as §1, §2
# [4] = test system: Enterobacter cloacae B1966 clinical isolate; assay: Study 4 - MIC by broth micro-dilution (CLSI); format: cell-based; conditions: Enterobacter cloacae
# Procedure: as §1, §2
# [5] = test system: Pseudomonas aeruginosa ATCC 27853; assay: Study 4 - MIC by broth micro-dilution (CLSI); format: cell-based; conditions: Pseudomonas aeruginosa, ATCC27853
# Procedure: as §1, §2
# [6] = test system: Klebsiella pneumoniae ATCC 700603; assay: Study 4 - MIC by broth micro-dilution (CLSI); format: cell-based; conditions: Klebsiella pneumoniae, ATCC700603
# Procedure: as §1, §2
# [7] = test system: Haemophilus influenzae ATCC 49247; assay: Study 4 - MIC by broth micro-dilution (CLSI); format: cell-based; conditions: Haemophilus influenzae, ATCC49247
# Procedure: as §1, §2
# [8] = test system: Acinetobacter baumannii B1931 clinical isolate; assay: Study 4 - MIC by broth micro-dilution (CLSI); format: cell-based; conditions: Acinetobacter baumannii
# Procedure: as §1, §2
# [9] = G = H. influenzae ATCC 49247, read-out: MIC
# E. Coli LeuRS, sequence (P07813 whole entry): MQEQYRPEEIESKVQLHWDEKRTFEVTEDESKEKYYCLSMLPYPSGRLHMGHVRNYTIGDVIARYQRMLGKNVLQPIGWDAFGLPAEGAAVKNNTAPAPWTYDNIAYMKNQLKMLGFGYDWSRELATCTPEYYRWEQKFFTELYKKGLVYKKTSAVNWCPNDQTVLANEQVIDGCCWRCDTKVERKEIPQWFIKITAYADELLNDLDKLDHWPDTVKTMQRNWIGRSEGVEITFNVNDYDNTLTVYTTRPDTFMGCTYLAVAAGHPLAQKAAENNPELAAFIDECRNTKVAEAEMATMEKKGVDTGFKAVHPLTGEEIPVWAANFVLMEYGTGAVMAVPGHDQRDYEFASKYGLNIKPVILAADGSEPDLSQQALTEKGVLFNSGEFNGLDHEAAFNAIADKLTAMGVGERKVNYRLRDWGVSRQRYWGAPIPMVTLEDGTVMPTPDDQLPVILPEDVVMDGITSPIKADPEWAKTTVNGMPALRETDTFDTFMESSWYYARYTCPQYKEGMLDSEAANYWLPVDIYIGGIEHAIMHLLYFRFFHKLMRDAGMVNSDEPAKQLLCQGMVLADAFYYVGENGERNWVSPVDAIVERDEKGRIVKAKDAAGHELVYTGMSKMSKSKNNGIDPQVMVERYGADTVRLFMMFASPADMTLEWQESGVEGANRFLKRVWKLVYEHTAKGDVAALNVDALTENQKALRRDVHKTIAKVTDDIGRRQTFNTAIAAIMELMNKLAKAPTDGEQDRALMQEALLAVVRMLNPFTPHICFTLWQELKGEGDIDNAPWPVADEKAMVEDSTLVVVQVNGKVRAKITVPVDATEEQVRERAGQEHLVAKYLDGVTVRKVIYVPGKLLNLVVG
Compound,MIC [1],IC50 at 24 h [2],Kd (E. Coli LeuRS),ΔG (E. Coli LeuRS),ΔH (E. Coli LeuRS),MIC [3],MIC [4],MIC [5],MIC [6],MIC [7],MIC [8],"MIC [7, 9]"
"CC(C)C[C@H](N)C(=O)N[S@+]([O-])c1ccccc1 (single isomer, unassigned) [R-4.1, 2,2,2-trifluoroacetate]",2 µg/mL,> 64 µg/mL,3.86 ± 0.24 nM,-11.48 ± 0.04 kcal/mol,-11.92 ± 0.34 kcal/mol,2 µg/mL,4 µg/mL,32 µg/mL,8 µg/mL,16 µg/mL,8 µg/mL,–
"CC(C)C[C@H](N)C(=O)N[S@@+]([O-])c1ccccc1 (single isomer, unassigned) [S-4.1]",64 µg/mL,> 64 µg/mL,9130 ± 2720 nM,-6.89 ± 0.16 kcal/mol,-2.33 ± 0.13 kcal/mol,64 µg/mL,> 64 µg/mL,> 64 µg/mL,> 64 µg/mL,–,> 64 µg/mL,> 64 µg/mL
C=Cc1cccc([S+]([O-])NC(=O)C(N)CC(C)C)c1 (centres unmarked) [4.16],8 µg/mL,> 64 µg/mL,27.2 ± 8.44 nM,-10.34 ± 0.19 kcal/mol,-4.89 ± 0.08 kcal/mol,8 µg/mL,32 µg/mL,> 64 µg/mL,> 64 µg/mL,–,32 µg/mL,32 µg/mL
CC(C)CC(N)C(=O)N[S+]([O-])c1cccc(-c2ccccc2)c1 (centres unmarked) [4.17],64 µg/mL,47.7 µg/mL,4.47 ± 0.04 nM,-11.39 ± 0.01 kcal/mol,-9.72 ± 0.22 kcal/mol,> 64 µg/mL,> 64 µg/mL,> 64 µg/mL,> 64 µg/mL,–,> 64 µg/mL,> 64 µg/mL
CC(C)CC(N)C(=O)N[S+]([O-])c1cccc(C(F)(F)F)c1 (centres unmarked) [4.18],16 µg/mL,> 64 µg/mL,6.06 ± 0.49 nM,-11.20 ± 0.06 kcal/mol,-7.03 ± 0.14 kcal/mol,64 µg/mL,> 64 µg/mL,> 64 µg/mL,> 64 µg/mL,–,> 64 µg/mL,> 64 µg/mL
CC(C)CC(N)C(=O)N[S+]([O-])c1cccc(OC(F)(F)F)c1 (centres unmarked) [4.20],8 µg/mL,> 64 µg/mL,1.39 ± 0.07 nM,-12.08 ± 0.03 kcal/mol,-11.64 ± 0.45 kcal/mol,8 µg/mL,> 64 µg/mL,> 64 µg/mL,> 64 µg/mL,–,> 64 µg/mL,64 µg/mL
COC(=O)c1cccc([S+]([O-])NC(=O)C(N)CC(C)C)c1 (centres unmarked) [4.21],32 µg/mL,> 64 µg/mL,6.61 ± 0.83 nM,-11.16 ± 0.07 kcal/mol,-8.23 ± 0.43 kcal/mol,32 µg/mL,> 64 µg/mL,> 64 µg/mL,> 64 µg/mL,–,> 64 µg/mL,> 64 µg/mL
CNc1cccc([S+]([O-])NC(=O)C(N)CC(C)C)c1 (centres unmarked) [4.22],16 µg/mL,> 64 µg/mL,34.5 ± 0.76 nM,-10.17 ± 0.02 kcal/mol,-4.27 ± 0.19 kcal/mol,16 µg/mL,32 µg/mL,> 64 µg/mL,64 µg/mL,–,32 µg/mL,> 64 µg/mL
C#Cc1cccc([S+]([O-])NC(=O)C(N)CC(C)C)c1 (centres unmarked) [4.27],2 µg/mL,> 64 µg/mL,3.69 ± 0.05 nM,-11.50 ± 0.00 kcal/mol,-8.71 ± 1.08 kcal/mol,4 µg/mL,8 µg/mL,> 64 µg/mL,32 µg/mL,–,> 64 µg/mL,16 µg/mL
CC(C)CC(N)C(=O)N[S+]([O-])c1ccc(F)cc1 (centres unmarked) [4.29],16 µg/mL,> 64 µg/mL,9.14 ± 0.3 nM,-10.96 ± 0.01 kcal/mol,-10.95 ± 0.18 kcal/mol,8 µg/mL,16 µg/mL,> 64 µg/mL,64 µg/mL,–,16 µg/mL,32 µg/mL
CC(C)CC(N)C(=O)N[S+]([O-])c1ccccc1F (centres unmarked) [4.31],2 µg/mL,> 64 µg/mL,6.78 ± 1.73 nM,-11.15 ± 0.16 kcal/mol,-12.97 ± 2.04 kcal/mol,2 µg/mL,4 µg/mL,32 µg/mL,2 µg/mL,–,4 µg/mL,8 µg/mL
CC(C)CC(N)C(=O)N[S+]([O-])c1ccccc1Cl (centres unmarked) [4.32],8 µg/mL,> 64 µg/mL,4.61 ± 0.06 nM,-11.37 ± 0.01 kcal/mol,-10.62 ± 0.25 kcal/mol,4 µg/mL,16 µg/mL,> 64 µg/mL,16 µg/mL,–,16 µg/mL,32 µg/mL
CC(C)CC(N)C(=O)N[S+]([O-])c1cccc(F)c1F (centres unmarked) [4.34],0.25 µg/mL,> 64 µg/mL,288 ± 42.9 nM,-8.93 ± 0.08 kcal/mol,-9.90 ± 0.40 kcal/mol,0.5 µg/mL,1 µg/mL,32 µg/mL,1 µg/mL,–,2 µg/mL,4 µg/mL
CC(C)CC(N)C(=O)N[S+]([O-])c1cc(F)cc(F)c1 (centres unmarked) [4.35],16 µg/mL,> 64 µg/mL,16.4 ± 2.72 nM,-10.63 ± 0.10 kcal/mol,-9.97 ± 0.10 kcal/mol,16 µg/mL,64 µg/mL,> 64 µg/mL,> 64 µg/mL,–,> 64 µg/mL,> 64 µg/mL
CC(C)CC(N)C(=O)N[S+]([O-])c1ccc(F)c(Cl)c1 (centres unmarked) [4.37],8 µg/mL,> 64 µg/mL,–,–,–,8 µg/mL,64 µg/mL,> 64 µg/mL,> 64 µg/mL,–,64 µg/mL,32 µg/mL
CC(C)C[C@H](N)C(=O)N[S@+]([O-])c1cccc(Cl)c1 [R-4.12],2 µg/mL,> 64 µg/mL,1.48 ± 0.08 nM,-11.96 ± 0.12 kcal/mol,-10.75 ± 1.06 kcal/mol,2 µg/mL,8 µg/mL,> 64 µg/mL,32 µg/mL,–,32 µg/mL,8 µg/mL
